The values that follow come from ChEMBL document CHEMBL5465560, “Selectivity Literature for EUbOPEN Chemogenomic Library” (2024).

Bounds are passed on as bounds.

The target in assay [1] is Calcium/calmodulin-dependent protein kinase type 1G (Homo sapiens) (UniProt Q96NX5). Nature of the assay: Selectivity interaction (Kinase panel (DSF assay)) EUB0001558a CAMK1G. For orientation: Differential scanning fluorimetry follows unfolding on heating by fluorescence.
Assay [2] has as its target T1, Ankyrin repeat and protein kinase domain-containing protein 1 (Homo sapiens) (UniProt Q8NFD2).
T1 sequence (whole entry): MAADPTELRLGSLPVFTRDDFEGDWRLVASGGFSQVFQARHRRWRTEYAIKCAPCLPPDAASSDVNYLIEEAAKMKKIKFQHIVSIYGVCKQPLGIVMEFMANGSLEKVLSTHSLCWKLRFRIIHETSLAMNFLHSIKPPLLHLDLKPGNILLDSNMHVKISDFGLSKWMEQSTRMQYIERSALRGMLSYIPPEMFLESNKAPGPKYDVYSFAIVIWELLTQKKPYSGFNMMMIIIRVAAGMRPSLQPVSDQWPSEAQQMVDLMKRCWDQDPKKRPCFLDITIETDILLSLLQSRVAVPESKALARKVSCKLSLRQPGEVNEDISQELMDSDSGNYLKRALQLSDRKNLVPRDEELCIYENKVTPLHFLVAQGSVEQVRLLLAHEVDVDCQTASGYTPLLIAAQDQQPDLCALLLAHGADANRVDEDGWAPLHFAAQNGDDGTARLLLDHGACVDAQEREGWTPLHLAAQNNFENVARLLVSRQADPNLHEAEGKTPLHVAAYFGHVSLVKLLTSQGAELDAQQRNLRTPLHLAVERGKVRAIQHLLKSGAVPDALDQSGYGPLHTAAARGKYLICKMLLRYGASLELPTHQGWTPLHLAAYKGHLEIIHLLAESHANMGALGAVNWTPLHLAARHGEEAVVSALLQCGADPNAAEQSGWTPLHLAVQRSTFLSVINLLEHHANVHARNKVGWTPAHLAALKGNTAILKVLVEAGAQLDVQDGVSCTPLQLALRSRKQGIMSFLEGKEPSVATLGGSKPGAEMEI
Nature of the assay: Selectivity interaction (KinomeScan (DiscoverX)) EUB0001079a ANKK1. As to conditions: at 1 µM.

The target of assay [3] is T2, Ephrin type-A receptor 6 (Homo sapiens) (UniProt Q9UF33).
T2 sequence (whole entry): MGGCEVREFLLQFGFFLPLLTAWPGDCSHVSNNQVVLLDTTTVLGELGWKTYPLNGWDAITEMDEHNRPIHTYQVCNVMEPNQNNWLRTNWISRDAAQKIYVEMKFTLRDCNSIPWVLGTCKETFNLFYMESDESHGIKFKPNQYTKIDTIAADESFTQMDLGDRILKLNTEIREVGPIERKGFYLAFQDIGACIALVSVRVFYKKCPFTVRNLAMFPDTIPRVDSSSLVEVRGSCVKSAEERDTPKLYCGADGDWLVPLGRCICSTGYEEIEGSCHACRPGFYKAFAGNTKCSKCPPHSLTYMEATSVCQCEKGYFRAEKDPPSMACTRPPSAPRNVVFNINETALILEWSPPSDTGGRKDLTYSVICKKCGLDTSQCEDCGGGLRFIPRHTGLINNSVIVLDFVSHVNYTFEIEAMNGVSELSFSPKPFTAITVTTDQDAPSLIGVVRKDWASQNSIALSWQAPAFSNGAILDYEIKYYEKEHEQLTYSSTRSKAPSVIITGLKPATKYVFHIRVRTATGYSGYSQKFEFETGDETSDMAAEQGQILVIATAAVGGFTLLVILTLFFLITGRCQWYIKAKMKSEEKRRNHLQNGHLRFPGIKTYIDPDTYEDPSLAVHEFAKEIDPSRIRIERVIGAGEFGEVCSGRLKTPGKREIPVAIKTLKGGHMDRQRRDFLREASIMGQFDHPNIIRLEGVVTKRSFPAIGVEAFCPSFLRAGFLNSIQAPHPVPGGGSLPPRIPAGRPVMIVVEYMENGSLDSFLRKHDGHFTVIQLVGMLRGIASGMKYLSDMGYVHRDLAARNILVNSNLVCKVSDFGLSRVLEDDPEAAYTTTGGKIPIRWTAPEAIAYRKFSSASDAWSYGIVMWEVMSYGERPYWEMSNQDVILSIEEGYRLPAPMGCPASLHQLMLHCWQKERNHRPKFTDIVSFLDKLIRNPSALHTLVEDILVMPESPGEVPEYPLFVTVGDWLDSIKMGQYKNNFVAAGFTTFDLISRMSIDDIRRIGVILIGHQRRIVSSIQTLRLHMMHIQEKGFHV
Nature of the assay: Selectivity interaction (KinomeScan (DiscoverX)) EUB0001079a EPHA6. As to conditions: at 1 µM.

Assay [4] has as its system Phosphatidylinositol 4,5-bisphosphate 3-kinase catalytic subunit alpha isoform (Homo sapiens), P42336 [I800L]. As to conditions: at 10 µM.
Assay [5] has as its target Dual specificity mitogen-activated protein kinase kinase 1 (Homo sapiens, UniProt Q02750). Nature of the assay: Selectivity interaction (KinomeScan (DiscoverX)) EUB0001049a MAP2K1. Conditions: at 1 µM.
Assay [6] concerns the target Cyclin-dependent kinase 2 (Homo sapiens, UniProt P24941). Nature of the assay: Selectivity interaction (ActivX KiNativ screen (kinase selectivity in THP-1 cell lysates)) EUB0000639a CDK2. In kind it is subcellular. As to conditions: lysate, at 5 µM.
Assay [7] concerns the target Mitogen-activated protein kinase kinase kinase 8 (Homo sapiens, UniProt P41279). Kind of assay: Selectivity interaction (Kinase panel (Invitrogen)) EUB0000639a MAP3K8. As to conditions: at 200 nM.
In assay [8] the target is SWI/SNF-related matrix-associated actin-dependent regulator of chromatin subfamily A member 2 (Homo sapiens, UniProt P51531). Kind of assay: Selectivity interaction (Human bromodomain panel (DSF assay)) EUB0000233b SMARCA2.
For assay [9], the target named is Serine/threonine-protein kinase PAK 6 (Homo sapiens) (UniProt Q9NQU5). Nature of the assay: Selectivity interaction (KinomeScan (DiscoverX)) EUB0001619a PAK6. As to conditions: at 1 µM.
Assay [10] addresses Serine/threonine-protein kinase WNK1 (Homo sapiens) (UniProt Q9H4A3). Kind of assay: Selectivity interaction (KinomeScan (DiscoverX)) EUB0001619a WNK1. Conditions: at 1 µM.
In assay [11] the target is T3, Serine/threonine-protein kinase Chk1 (Homo sapiens) (UniProt O14757).
T3 sequence (whole entry): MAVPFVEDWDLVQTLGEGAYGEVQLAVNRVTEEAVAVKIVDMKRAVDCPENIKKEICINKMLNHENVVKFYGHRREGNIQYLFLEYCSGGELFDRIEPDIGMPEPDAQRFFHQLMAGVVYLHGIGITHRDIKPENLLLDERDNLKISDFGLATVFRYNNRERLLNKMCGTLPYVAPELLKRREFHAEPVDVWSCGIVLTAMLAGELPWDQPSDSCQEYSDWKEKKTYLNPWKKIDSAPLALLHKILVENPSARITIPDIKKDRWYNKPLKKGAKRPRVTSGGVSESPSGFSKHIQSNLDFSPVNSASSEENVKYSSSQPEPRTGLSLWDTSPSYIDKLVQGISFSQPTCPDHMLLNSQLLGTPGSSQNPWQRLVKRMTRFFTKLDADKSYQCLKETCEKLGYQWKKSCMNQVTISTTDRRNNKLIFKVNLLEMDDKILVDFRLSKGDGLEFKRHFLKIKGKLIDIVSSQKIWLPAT
Kind of assay: Selectivity interaction (KinomeScan (DiscoverX)) EUB0001619a CHEK1. As to conditions: at 1 µM.

Chain of Serine/threonine-protein kinase PAK 6 (Homo sapiens) (Q9NQU5 whole entry, looked up): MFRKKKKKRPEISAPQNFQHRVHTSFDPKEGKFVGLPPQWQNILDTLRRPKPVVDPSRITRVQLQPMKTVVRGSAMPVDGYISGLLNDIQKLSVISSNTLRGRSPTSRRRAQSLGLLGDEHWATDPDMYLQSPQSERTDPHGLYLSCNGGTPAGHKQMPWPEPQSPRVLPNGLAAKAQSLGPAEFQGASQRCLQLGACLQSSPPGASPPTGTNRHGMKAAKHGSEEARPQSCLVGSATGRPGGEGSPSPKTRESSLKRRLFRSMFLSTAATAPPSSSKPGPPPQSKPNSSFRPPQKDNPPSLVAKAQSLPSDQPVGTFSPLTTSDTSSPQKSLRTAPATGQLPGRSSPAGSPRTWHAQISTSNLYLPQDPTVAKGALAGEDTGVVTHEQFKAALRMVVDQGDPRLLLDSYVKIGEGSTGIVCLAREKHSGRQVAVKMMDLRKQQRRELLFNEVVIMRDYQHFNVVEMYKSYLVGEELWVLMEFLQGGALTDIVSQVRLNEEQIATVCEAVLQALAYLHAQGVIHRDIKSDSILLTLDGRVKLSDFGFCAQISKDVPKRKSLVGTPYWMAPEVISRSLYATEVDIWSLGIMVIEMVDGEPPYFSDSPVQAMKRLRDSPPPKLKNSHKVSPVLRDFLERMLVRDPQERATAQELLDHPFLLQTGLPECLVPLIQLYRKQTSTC
Chain of Mitogen-activated protein kinase kinase kinase 8 (P41279 whole entry): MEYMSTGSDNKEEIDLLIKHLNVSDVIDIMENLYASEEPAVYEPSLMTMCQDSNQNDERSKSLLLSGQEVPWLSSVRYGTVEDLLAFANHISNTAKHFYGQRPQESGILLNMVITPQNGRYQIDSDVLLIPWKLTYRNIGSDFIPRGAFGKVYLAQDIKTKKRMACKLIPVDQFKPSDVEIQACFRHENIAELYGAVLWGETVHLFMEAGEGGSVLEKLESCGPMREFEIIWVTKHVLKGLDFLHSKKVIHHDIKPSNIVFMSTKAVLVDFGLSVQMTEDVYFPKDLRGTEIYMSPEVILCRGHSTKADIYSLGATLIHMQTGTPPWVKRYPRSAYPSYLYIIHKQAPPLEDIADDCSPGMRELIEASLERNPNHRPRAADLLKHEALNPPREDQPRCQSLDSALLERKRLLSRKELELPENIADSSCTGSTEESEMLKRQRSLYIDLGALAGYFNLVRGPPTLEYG
Chain of Serine/threonine-protein kinase WNK1 (Homo sapiens) (Q9H4A3 whole entry, looked up): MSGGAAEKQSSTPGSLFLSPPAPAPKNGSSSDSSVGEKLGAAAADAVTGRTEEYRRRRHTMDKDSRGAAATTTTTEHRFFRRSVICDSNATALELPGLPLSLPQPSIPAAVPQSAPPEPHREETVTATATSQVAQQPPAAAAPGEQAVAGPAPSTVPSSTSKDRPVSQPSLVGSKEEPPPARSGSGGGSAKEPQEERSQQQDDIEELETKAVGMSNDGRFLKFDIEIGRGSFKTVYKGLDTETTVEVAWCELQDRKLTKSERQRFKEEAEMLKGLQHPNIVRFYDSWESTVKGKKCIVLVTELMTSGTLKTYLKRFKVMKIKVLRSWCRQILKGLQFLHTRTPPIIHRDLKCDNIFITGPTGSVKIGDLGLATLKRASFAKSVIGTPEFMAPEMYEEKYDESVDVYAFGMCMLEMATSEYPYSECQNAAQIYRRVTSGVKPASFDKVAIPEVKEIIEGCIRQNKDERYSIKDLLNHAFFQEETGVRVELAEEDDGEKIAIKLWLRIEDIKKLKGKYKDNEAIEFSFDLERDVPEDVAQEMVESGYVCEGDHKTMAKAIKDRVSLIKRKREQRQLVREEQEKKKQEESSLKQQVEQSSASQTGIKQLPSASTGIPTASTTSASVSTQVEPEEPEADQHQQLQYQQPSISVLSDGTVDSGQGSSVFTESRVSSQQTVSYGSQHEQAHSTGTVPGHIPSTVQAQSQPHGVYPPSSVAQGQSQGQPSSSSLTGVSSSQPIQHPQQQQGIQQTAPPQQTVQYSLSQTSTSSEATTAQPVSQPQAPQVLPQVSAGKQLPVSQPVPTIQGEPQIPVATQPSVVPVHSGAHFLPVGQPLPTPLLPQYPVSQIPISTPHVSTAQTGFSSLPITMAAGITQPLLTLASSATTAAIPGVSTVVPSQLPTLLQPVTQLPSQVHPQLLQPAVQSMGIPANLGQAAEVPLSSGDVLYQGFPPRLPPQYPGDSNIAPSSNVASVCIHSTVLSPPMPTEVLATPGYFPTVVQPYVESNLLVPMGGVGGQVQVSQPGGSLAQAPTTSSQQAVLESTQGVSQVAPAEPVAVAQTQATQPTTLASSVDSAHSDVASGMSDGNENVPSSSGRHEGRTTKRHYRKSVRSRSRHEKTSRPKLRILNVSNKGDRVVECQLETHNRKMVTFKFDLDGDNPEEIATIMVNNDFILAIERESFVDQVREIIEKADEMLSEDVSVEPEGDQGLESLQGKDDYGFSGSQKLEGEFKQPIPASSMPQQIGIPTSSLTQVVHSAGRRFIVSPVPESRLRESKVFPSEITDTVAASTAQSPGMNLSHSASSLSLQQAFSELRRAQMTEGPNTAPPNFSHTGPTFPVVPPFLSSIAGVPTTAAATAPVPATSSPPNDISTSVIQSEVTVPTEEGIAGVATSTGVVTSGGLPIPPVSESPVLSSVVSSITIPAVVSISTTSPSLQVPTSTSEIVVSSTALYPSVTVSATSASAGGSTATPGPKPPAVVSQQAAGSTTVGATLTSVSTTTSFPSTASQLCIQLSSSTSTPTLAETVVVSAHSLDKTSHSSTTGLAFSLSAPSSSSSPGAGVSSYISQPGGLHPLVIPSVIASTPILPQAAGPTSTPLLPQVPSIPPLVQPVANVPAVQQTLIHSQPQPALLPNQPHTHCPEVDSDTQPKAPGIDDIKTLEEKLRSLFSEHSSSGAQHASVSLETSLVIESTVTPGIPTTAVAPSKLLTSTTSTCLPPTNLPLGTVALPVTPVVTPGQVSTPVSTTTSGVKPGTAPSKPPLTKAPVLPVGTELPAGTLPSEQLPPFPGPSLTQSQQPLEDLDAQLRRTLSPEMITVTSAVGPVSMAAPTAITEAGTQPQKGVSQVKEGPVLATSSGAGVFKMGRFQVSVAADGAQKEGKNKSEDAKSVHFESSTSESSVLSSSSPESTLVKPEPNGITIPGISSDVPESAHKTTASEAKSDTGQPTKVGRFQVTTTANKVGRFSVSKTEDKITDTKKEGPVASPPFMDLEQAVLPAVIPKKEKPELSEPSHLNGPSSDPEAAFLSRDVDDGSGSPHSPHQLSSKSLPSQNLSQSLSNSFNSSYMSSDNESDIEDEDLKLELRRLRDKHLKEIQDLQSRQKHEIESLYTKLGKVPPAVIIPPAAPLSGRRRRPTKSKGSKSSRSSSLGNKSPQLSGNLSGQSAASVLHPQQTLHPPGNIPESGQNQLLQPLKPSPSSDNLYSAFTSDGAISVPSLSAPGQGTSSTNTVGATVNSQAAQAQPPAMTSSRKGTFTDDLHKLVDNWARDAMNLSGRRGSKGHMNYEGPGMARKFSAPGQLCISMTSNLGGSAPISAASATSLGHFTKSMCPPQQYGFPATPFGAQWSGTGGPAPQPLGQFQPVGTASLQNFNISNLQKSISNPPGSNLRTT
Chain of Phosphatidylinositol 4,5-bisphosphate 3-kinase catalytic subunit alpha isoform (Homo sapiens), P42336 [I800L] (P42336 whole entry I800L, canonical isoform): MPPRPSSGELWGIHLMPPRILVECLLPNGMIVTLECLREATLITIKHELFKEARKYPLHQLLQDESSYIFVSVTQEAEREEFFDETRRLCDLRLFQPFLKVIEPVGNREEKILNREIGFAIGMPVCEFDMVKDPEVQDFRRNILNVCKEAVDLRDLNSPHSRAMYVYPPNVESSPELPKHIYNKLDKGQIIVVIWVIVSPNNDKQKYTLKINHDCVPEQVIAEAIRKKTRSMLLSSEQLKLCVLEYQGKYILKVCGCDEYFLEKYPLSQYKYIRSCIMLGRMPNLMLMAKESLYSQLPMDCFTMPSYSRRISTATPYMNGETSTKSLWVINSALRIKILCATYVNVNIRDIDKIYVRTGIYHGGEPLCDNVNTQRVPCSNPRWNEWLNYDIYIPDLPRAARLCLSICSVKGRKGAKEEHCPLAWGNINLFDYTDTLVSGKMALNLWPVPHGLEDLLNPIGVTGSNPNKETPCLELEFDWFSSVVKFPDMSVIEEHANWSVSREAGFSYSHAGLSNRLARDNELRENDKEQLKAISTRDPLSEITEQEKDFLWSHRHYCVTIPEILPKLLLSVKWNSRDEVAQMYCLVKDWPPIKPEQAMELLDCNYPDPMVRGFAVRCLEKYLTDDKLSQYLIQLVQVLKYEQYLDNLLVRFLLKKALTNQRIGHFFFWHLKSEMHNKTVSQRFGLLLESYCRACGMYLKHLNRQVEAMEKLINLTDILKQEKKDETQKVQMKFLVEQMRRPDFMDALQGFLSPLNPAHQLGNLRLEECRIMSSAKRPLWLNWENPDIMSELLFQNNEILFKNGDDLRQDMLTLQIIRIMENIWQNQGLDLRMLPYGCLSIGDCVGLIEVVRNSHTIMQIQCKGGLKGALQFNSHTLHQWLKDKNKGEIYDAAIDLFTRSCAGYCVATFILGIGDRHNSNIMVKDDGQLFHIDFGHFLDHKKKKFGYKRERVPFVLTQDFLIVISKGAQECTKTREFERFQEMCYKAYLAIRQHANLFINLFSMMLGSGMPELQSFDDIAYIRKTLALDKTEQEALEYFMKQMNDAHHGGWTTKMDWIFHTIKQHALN
Chain of Calcium/calmodulin-dependent protein kinase type 1G (Homo sapiens) (Q96NX5 whole entry, the tested form may be a part): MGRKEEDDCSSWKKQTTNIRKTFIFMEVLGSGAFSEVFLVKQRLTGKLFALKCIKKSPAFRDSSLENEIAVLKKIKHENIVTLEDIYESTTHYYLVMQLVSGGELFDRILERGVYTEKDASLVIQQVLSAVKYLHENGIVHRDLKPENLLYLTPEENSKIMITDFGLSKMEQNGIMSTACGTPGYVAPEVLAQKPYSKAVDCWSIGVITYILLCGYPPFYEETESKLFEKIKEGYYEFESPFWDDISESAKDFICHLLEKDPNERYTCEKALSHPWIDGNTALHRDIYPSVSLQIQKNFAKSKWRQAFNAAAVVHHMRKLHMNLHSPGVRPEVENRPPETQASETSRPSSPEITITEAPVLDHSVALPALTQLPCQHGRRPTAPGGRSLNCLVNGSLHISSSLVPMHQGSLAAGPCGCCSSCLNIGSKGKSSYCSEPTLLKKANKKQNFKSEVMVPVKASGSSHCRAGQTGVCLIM

As to `CC(C)(O)[C@H](F)CN1Cc2cc(NC(=O)c3cnn4cccnc34)c(N3CCOCC3)cc2C1=O`, in [1], the dTM amounted to 0.4 K.
With `Nc1cnc(N2CCc3cc(S(=O)(=O)Nc4c(F)cc(Cl)cc4F)cc(N4CCCC4=O)c32)nc1` [TP-020n], the results for the % of control in assay [2] and in assay [3] were 100% and 98%, respectively.
In assay [4], `CCC(=O)N1CCN(c2ccc(-n3c(=O)ccc4cnc5ccc(-c6cnc7ccccc7c6)cc5c43)cc2C(F)(F)F)CC1` returned a % of control of 0%.
The compound `COc1cc(Nc2nc(C)cc(-c3cnn4nc(OC)ccc34)n2)cc(C(F)(F)F)c1` displayed a % of control in [5] of 80%.
Turning to `CC[C@@H]1[C@H](F)C(=O)N[C@@H]1COc1nccc2cc(C(N)=O)c(OC)cc12` [ZIMLOVISERTIB], the % of inhibition in assay [6] was determined as 3%; in [7], 24.9%.
The compound `CN(C)CCCOc1ccc(-c2cc(NCCCn3cccn3)nc(S(C)(=O)=O)n2)cc1` returned a dTM in [8] of less than 2 K.
For the compound `N#Cc1cccc(-c2c[nH]c3ncnc(N4CCOCC4)c23)c1`, the % of control in [9] amounted to 66%; in [10], 100%; in assay [11], 94%.
